Assay results published in US20240141020A1, “METHOD FOR MODULATING AFUCOSLYATION OF AN ANTIBODY PRODUCT” (LONZA BEND INC., priority 2021, published 2024).

Test system: CHO GS-KO cells
Experiment: Modulation of afucosylation of a model IgG antibody produced by CHO GS-KO cells in supplemented culture medium (shake flasks, 5 days, LC-MS glycan profile)
Format: cell-based, Chinese hamster
Details: for Average % Afucosylation: mAb harvested day 5, G0/(G0F+G0), n = 3 technical replicates, control 5.21%
Description: CHO GS-KO cells were cultured in chemically defined culture medium supplemented with different chemicals at different concentrations to test the impact of those chemicals on the N-linked glycan profile of the product produced by the cultures. The product produced by this cell line was a model IgG antibody. • 1. Prepare culture media with supplemented chemicals • 2. Culture cells in media from (1) • 3. Harvest mAb produced in cultures and measure glycan profile of purified, reduced, and de-salted mAb products • 4. Determine statistical impact of chemical supplements on glycan product quality The chemicals that were supplemented to the medium included: • None (Control) • Mannose • N-Acetylmannosamine (ManNAc)+Galactose Concentrated stock solutions of mannose, ManNAc, and galactose were prepared and added into culture media. Specific volumes of the stock solution was supplemented to the culture media to generate the conditions in Table 1: GS-KO cells were inoculated at a density of 2×10^5 cells/mL into vented shake flasks containing medium from Table 1. Cultures were grown for five days in a temperature, CO2, and humidity-controlled incubator. Daily samples were taken to monitor the culture health. mAb product was harvested from day 5 shake flask cultures and purified through Protein A capture. Purified mAb was prepared for glycan analysis by reducing mAb to separate heavy and light chains. Reduced mAb was injected onto an LC-MS where the reduced mAb was de-salted by passing through a reverse-phase de-salting column on the LC prior to injection into a time of flight mass spectrometer (TOF MS) (Agilent 6230B). Three injections per sample was performed for technical replicates. Protein Metrics Software was used to process the resulting LC-MS data and the relative abundance of each glycan species was reported. The glycan species measured in processing included: G0, G0F, G1F, G2F, G1F+NeuAc, […]+NeuAc, […]+2NeuAc. Percent afucosulated mAb was calculated by dividing the total amount of afucosylated species by the sum of afucosylate and fucosylated species (G0/[…]+G0).

SMILES	afucosylation compared to control (in words) (higher concentration of ManNAc (10 uM), with 1 mM galactose)	Average % Afucosylation (culture medium + 1 g/L Mannose) [%]	Average % Afucosylation (culture medium + 3 g/L Mannose) [%]	Average % Afucosylation (culture medium + 6 g/L Mannose) [%]	high mannose species of the antibody product (in words) (mannose in amounts greater than about 1 g/L)	% afucosylated mAb compared to control (in words) (supplementation of culture medium with mannose, 1, 3, 6 g/L)
CC(=O)N[C@@H]1C(O)O[C@H](CO)[C@@H](O)[C@@H]1O (stereo partly drawn) [ManNAc, N-Acetylmannosamine]	decreasing afucosylation slightly					
O=C[C@@H](O)[C@@H](O)[C@H](O)[C@H](O)CO [Mannose, mannose]		5.63	6.10	7.27	does not appear to result in an increase in high mannose species	significantly increased
